Test system: ATF4 luciferase reporter in HEK293T cells
Assay: ATF4-Luc assay (in vitro model of VWMD)
Assay type: cell-based, human
Conditions: Homo sapiens, HEK-293T, 7 h, HEK293T cells carrying the ATF4 luciferase reporter, 1 μg/mL tunicamycin, One Glo luminescence
Description: In order to test exemplary compounds of the invention in a cellular context, a stable VWMD cell line was first constructed. The ATF4 reporter was prepared by fusing the human full-length ATF4 5′-UTR (NCBI Accession No. BC022088.2) in front of the firefly luciferase (FLuc) coding sequence lacking the initiator methionine as described in Sidrauski et al (eLife 2013). The construct was used to produce recombinant retroviruses using standard methods and the resulting viral supernatant was used to transduce HEK293T cells, which were then subsequently selected with puromycin to generate a stable cell line.
HEK293T cells carrying the ATF4 luciferase reporter were plated on polylysine coated 384-well plates (Greiner Bio-one) at 30,000 cells per well. Cells were treated the next day with 1 μg/mL tunicamycin and 200 nM of a compound of Formula (I) for 7 hours. Luminescence was measured using One Glo (Promega) as specified by the manufacturer. Cells were maintained in DMEM with L-glutamine supplemented with 10% heat-inactivated FBS (Gibco) and Antibiotic-Antimycotic solution (Gibco).
Table 4 below summarizes the EC50 data obtained using the ATF4-Luc assay for exemplary compounds of the invention.

O=C(NC12CC(n3cc(OCCCOC(F)(F)F)cn3)(C1)C2)[C@H]1C[C@@H](O)c2cc(Cl)c(F)cc2O1 [Compound 433, (2R,4R)-6-chloro-7-fluoro-4-hydroxy-N-(3-{4-[3-(trifluoromethoxy)propoxy]-1H-pyrazol-1-yl}bicyclo[1.1.1]pentan-1-yl)-3,4-dihydro-2H-1-benzopyran-2-carboxamide]
EC50: < 10 nM

O=C(NC12CC(n3cc(OCCCOC(F)(F)F)cn3)(C1)C2)[C@H]1C[C@@H](O)c2cc(C(F)(F)F)ccc2O1 [Compound 435, (2R,4R)-4-hydroxy-N-(3-{4-[3-(trifluoromethoxy)propoxy]-1H-pyrazol-1-yl}bicyclo[1.1.1]pentan-1-yl)-6-(trifluoromethyl)-3,4-dihydro-2H-1-benzopyran-2-carboxamide]
EC50: < 10 nM

O=C(NC12CC(n3cc(OCCOC(F)F)cn3)(C1)C2)[C@H]1C[C@@H](O)c2cc(Cl)ccc2O1 [Compound 420, (2R,4R)-6-chloro-N-(3-{4-[2-(difluoromethoxy)ethoxy]-1H-pyrazol-1-yl}bicyclo[1.1.1]pentan-1-yl)-4-hydroxy-3,4-dihydro-2H-1-benzopyran-2-carboxamide]
EC50: 10 to 50 nM

O=C(NC12CC(n3cc(C(=O)N4CC(COC(F)F)C4)cn3)(C1)C2)[C@H]1C[C@@H](O)c2cc(Cl)ccc2O1 [Compound 348, (2R,4R)-6-chloro-N-[3-(4-{3-[(difluoromethoxy)methyl]azetidine-1-carbonyl}-1H-pyrazol-1-yl)bicyclo[1.1.1]pentan-1-yl]-4-hydroxy-3,4-dihydro-2H-1-benzopyran-2-carboxamide]
EC50: 50 to 250 nM

O=C(N[C@H]1CC[C@H](n2cc(-c3ccc(C(F)(F)F)cn3)cn2)CC1)[C@H]1C[C@@H](O)c2cc(Cl)c(F)cc2O1 [Compound 578, (2R,4R)-6-chloro-7-fluoro-4-hydroxy-N-[(1r,4R)-4-{4-[5-(trifluoromethyl)pyridin-2-yl]-1H-pyrazol-1-yl}cyclohexyl]-3,4-dihydro-2H-1-benzopyran-2-carboxamide]
EC50: < 10 nM

O=C(NC12CC(n3cc(-c4cnn(CC(F)(F)F)c4)cn3)(C1)C2)[C@H]1C[C@@H](O)c2cc(Cl)c(F)cc2O1 [Compound 564, (2R,4R)-6-chloro-7-fluoro-4-hydroxy-N-{3-[1′-(2,2,2-trifluoroethyl)-1H,1′H-[4,4′-bipyrazol]-1-yl]bicyclo[1.1.1]pentan-1-yl}-3,4-dihydro-2H-1-benzopyran-2-carboxamide]
EC50: < 10 nM

O=C(NC12CC(n3cc(OCCOC(F)(F)F)cn3)(C1)C2)[C@H]1C[C@@H](O)c2cc(F)c(F)cc2O1 [Compound 429, (2R,4R)-6,7-difluoro-4-hydroxy-N-(3-{4-[2-(trifluoromethoxy)ethoxy]-1H-pyrazol-1-yl}bicyclo[1.1.1]pentan-1-yl)-3,4-dihydro-2H-1-benzopyran-2-carboxamide]
EC50: < 10 nM

O=C(NC12CC(n3cc(-c4cnc(C(F)(F)F)c(F)c4)cn3)(C1)C2)[C@H]1C[C@@H](O)c2cc(Cl)ccc2O1 [Compound 347, (2R,4R)-6-chloro-N-(3-{4-[5-fluoro-6-(trifluoromethyl)pyridin-3-yl]-1H-pyrazol-1-yl}bicyclo[1.1.1]pentan-1-yl)-4-hydroxy-3,4-dihydro-2H-1-benzopyran-2-carboxamide]
EC50: < 10 nM

O=C(COc1ccc(Cl)c(F)c1)NC12CC(c3ccc(C(=O)N4CC[C@H](OC(F)(F)F)C4)nc3)(C1)C2 [Compound 603, 2-(4-chloro-3-fluorophenoxy)-N-(3-{6-[(3S)-3-(trifluoromethoxy)pyrrolidine-1-carbonyl]pyridin-3-yl}bicyclo[1.1.1]pentan-1-yl)acetamide]
EC50: < 10 nM

O=C(CO[C@H]1C[C@@H](OC(F)(F)F)C1)NC12CC(NC(=O)[C@H]3C[C@@H](O)c4cc(C(F)(F)F)ccc4O3)(C1)C2 [Compound 493, (2R,4R)-4-hydroxy-N-[3-(2-{[(1s,3S)-3-(trifluoromethoxy)cyclobutyl]oxy}acetamido)bicyclo[1.1.1]pentan-1-yl]-6-(trifluoromethyl)-3,4-dihydro-2H-1-benzopyran-2-carboxamide]
EC50: < 10 nM

Source: US20250145594A1, “MODULATORS OF THE INTEGRATED STRESS PATHWAY” (Calico Life Sciences LLC, priority 2020, published 2025)
